Measurements as given in US20030186890A1, “Amphipathic linear peptides and formulations containing said peptides” (SYNT:EM S.A., priority 2000, published 2003).
Several values for one entry are separate records, joined by “and”; a condition that tells them apart may be missing. Identical values can stand only once.

What was measured:
[1] = mouse, in vivo
Description: This is a rapid and sensitive method to evaluate the penetration of various compounds in the central nervous system. Young mice (25-30 g, Iffa-Credo; l'Arbresle, France) were anaesthetised. After exposure of the common carotid, the right external carotid artery was tied at the bifurcation with the internal carotid and the common carotid was tied between the heart and the catheter implantation site (polyethylene catheter, ID: 0.76). The catheter previously filled with a heparin solution (100 units/ml) was inserted into the common carotid. The mice were infused with the infusion buffer (128 mM NaCl, 24 mM NaHCO3, 4.2 mM KCl, 2.4 mM NaH2PO4, 1.5 mM CaCl2, 0.9 mM MgSO4 and 9 mM D-glucose). The buffer was filtered and then bubbled with a mixture containing 95% O2/5% CO2 to maintain the pH close to 7.4 and supply the brain with oxygen during the infusion.
In each product, the doxorubicin was radiolabelled with carbon 14 (specific activity: 9.4 μCi/mg, Amersham, France) . The products were infused at a concentration of 0.33 μCi/ml or 0.035 mg/mouse.
Just before the start of infusion, the heart was stopped by ventricular section to prevent infusate reflux during infusion. The right hemisphere was then infused at a rate of 10 ml/min for 60 seconds, after which the mouse was decapitated. […]

K562 cells = assay: Cell penetration of NBD-labelled peptides by flow cytometry (FACS); format: cell-based; details: for penetration (mean fluorescent intensity): NBD-labelled peptide 1 μM, 37° C.; for penetration relative to that of SynB1: at 60 min; for penetration compared with the reference peptide (in words): irrespective of the time interval
Description: Cell penetration of the peptides was studied by flow cytometry. The K562 cells were cultured in RPMI medium with 10% foetal calf serum. The cells were diluted to 0.3×10^6 cells per ml 24 hours before the experiment. The cell penetration was measured by flow cytometry using a FACScan (Becton Dickinson, USA). The peptides labelled with NBD (final concentration 1 μM) were incubated with the K562 cells (5×10^5 cells per ml) in Optimem medium at 37° C. for variable periods (the final volume was 0.5 ml). After incubation, the cells were washed twice and then resuspended in 0.5 ml of cold PBS. The penetration was then analysed by FACS. The fluorophors were excited at 488 nm and the fluorescence measured at 525 nm. A histogram of the fluorescent intensity (for 1×10^4 cells) was obtained and the mean distribution considered to be representative of the quantity of peptide associated with the cells.

Doxo-(RGGRLSYSCitCitCitFSTSTGR) [Doxo-SynB1/3Cit]
increase of passage into the brain (influx constant Kin) versus doxorubicin alone [1]: 20 times

R G G R L A Y L R R R W A V L V G R (RGGRLAYLRRRWAVLVGR) [SM3979]
penetration (mean fluorescent intensity) (K562 cells; Time 0 min): 4
penetration (mean fluorescent intensity) (K562 cells; Time 5 min): 75
penetration (mean fluorescent intensity) (K562 cells; Time 10 min): 95
penetration (mean fluorescent intensity) (K562 cells; Time 30 min): 100
penetration (mean fluorescent intensity) (K562 cells; Time 60 min): 114
penetration relative to that of SynB1 (K562 cells): 9 times
penetration compared with the reference peptide (in words) (K562 cells): penetrate much more effectively

R G G R L S Y S R R R F S T S T G R (RGGRLSYSRRRFSTSTGR) [SynB1, reference compound]
penetration (mean fluorescent intensity) (K562 cells; Time 0 min): 4
penetration (mean fluorescent intensity) (K562 cells; Time 5 min): 7
penetration (mean fluorescent intensity) (K562 cells; Time 10 min): 7
penetration (mean fluorescent intensity) (K562 cells; Time 30 min): 8
penetration (mean fluorescent intensity) (K562 cells; Time 60 min): 12

R G G R L V Y V R R R W V V V V G R (RGGRLVYVRRRWVVVVGR) [SM3980]
penetration (mean fluorescent intensity) (K562 cells; Time 0 min): 4
penetration (mean fluorescent intensity) (K562 cells; Time 5 min): 34
penetration (mean fluorescent intensity) (K562 cells; Time 10 min): 42
penetration (mean fluorescent intensity) (K562 cells; Time 30 min): 54
penetration (mean fluorescent intensity) (K562 cells; Time 60 min): 62
penetration relative to that of SynB1 (K562 cells): 5 times
penetration compared with the reference peptide (in words) (K562 cells): penetrate much more effectively

R L R W R L R L R F (RLRWRLRLRF) [SM4292]
penetration (mean fluorescent intensity) (K562 cells; Time 0 min): 4.5
penetration (mean fluorescent intensity) (K562 cells; Time 5 min): 140
penetration (mean fluorescent intensity) (K562 cells; Time 10 min): 140
penetration (mean fluorescent intensity) (K562 cells; Time 30 min): 141
penetration (mean fluorescent intensity) (K562 cells; Time 60 min): 146

R L R W R L R Y R F (RLRWRLRYRF) [SM4291]
penetration (mean fluorescent intensity) (K562 cells; Time 0 min): 4.5
penetration (mean fluorescent intensity) (K562 cells; Time 5 min): 91
penetration (mean fluorescent intensity) (K562 cells; Time 10 min): 99
penetration (mean fluorescent intensity) (K562 cells; Time 30 min): 107
penetration (mean fluorescent intensity) (K562 cells; Time 60 min): 118

R R L S Y S R R R F (RRLSYSRRRF) [SynB3, reference compound]
penetration (mean fluorescent intensity) (K562 cells; Time 0 min): 4 and 4.5
penetration (mean fluorescent intensity) (K562 cells; Time 5 min): 9.5 and 12
penetration (mean fluorescent intensity) (K562 cells; Time 10 min): 10 and 13
penetration (mean fluorescent intensity) (K562 cells; Time 30 min): 12 and 15
penetration (mean fluorescent intensity) (K562 cells; Time 60 min): 16 and 23

R R L W L L R R R F (RRLWLLRRRF) [SM4288]
penetration (mean fluorescent intensity) (K562 cells; Time 0 min): 4
penetration (mean fluorescent intensity) (K562 cells; Time 5 min): 33
penetration (mean fluorescent intensity) (K562 cells; Time 10 min): 38
penetration (mean fluorescent intensity) (K562 cells; Time 30 min): 53
penetration (mean fluorescent intensity) (K562 cells; Time 60 min): 61

R R L W R L L R R F (RRLWRLLRRF) [SM4290]
penetration (mean fluorescent intensity) (K562 cells; Time 0 min): 4
penetration (mean fluorescent intensity) (K562 cells; Time 5 min): 147
penetration (mean fluorescent intensity) (K562 cells; Time 10 min): 168
penetration (mean fluorescent intensity) (K562 cells; Time 30 min): 366
penetration (mean fluorescent intensity) (K562 cells; Time 60 min): 371

R R L W R L Y R R F (RRLWRLYRRF) [SM4289]
penetration (mean fluorescent intensity) (K562 cells; Time 0 min): 4
penetration (mean fluorescent intensity) (K562 cells; Time 5 min): 63
penetration (mean fluorescent intensity) (K562 cells; Time 10 min): 80
penetration (mean fluorescent intensity) (K562 cells; Time 30 min): 107
penetration (mean fluorescent intensity) (K562 cells; Time 60 min): 135

R R L W Y L R R R F (RRLWYLRRRF) [SM4287]
penetration (mean fluorescent intensity) (K562 cells; Time 0 min): 4
penetration (mean fluorescent intensity) (K562 cells; Time 5 min): 29
penetration (mean fluorescent intensity) (K562 cells; Time 10 min): 34
penetration (mean fluorescent intensity) (K562 cells; Time 30 min): 50
penetration (mean fluorescent intensity) (K562 cells; Time 60 min): 60

RKLWYLRKRF [SM4293]
penetration (mean fluorescent intensity) (K562 cells; Time 0 min): 4.5
penetration (mean fluorescent intensity) (K562 cells; Time 5 min): 20
penetration (mean fluorescent intensity) (K562 cells; Time 10 min): 23
penetration (mean fluorescent intensity) (K562 cells; Time 30 min): 29
penetration (mean fluorescent intensity) (K562 cells; Time 60 min): 31
